This is an account of results in patent publication US7045343B2, “Sterilization indicator test packs” (3M Innovative Properties Company, priority 1998, dated 2006).

Assay [1] relates to Bacillus stearothermophilus spores. Put plainly: Spore outgrowth (color change) of indicators after prevacuum steam sterilization. It counts as cell-based. The conditions noted are these: 4-pulse prevacuum steam 121° C., 7–13 min. An outline of the steps: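 Self-contained indicators held coated spore strips, a polypropylene microfiber barrier and a crushable inner container. That container held peptone, L-alanine, 4-methylumbelliferyl-alpha-D-glucoside and bromocresol purple at pH 7.6. Indicators sat in metal trays in a Getinge sterilizer running pulses of 0.075–0.085 bar vacuum and steam to 1.00 bar at 121° C. Incubation at 60° C followed, and yellow color at 168 hours scored spore outgrowth.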

Assay [2] concerns enzyme associated with Bacillus stearothermophilus spores. Put plainly: Rapid enzyme fluorescence readout of dual rapid readout indicators after prevacuum steam sterilization. It counts as biochemical. Particulars: 4-pulse prevacuum steam 121° C.; for FLUORESCENCE - PERCENT POSITIVE 1 HR / FLUORESCENCE - PERCENT POSITIVE 2 HR / FLUORESCENCE - PERCENT POSITIVE 3 HR / FLUORESCENCE - PERCENT POSITIVE 4 HR / FLUORESCENCE - PERCENT POSITIVE 5 HR / FLUORESCENCE - PERCENT POSITIVE 6 HR: 7–13 min. The procedure, abridged:
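This is a rapid enzyme test in which spore-associated enzyme activity is detected by fluorescence. Spores coated with chemicals were dried on 5×25 mm paper strips for 16 hours at 37° C. They were loaded into indicators that carried 4-methylumbelliferyl-alpha-D-glucoside substrate, with untreated spores serving as controls. After 4-pulse prevacuum steam exposure at 121° C, with vacuum at 0.075–0.085 bar, the substrate ampoules were crushed and the indicators were incubated at 60° C and read with an autoreader.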

For assay [3], the system named is Bacillus stearothermophilus spores. Put plainly: Spore outgrowth (color change) of indicators after hydrogen peroxide plasma sterilization. The class given is cell-based. The conditions noted are these: 1–22 min diffusion. The protocol: (§1) Sterilization indicators for Examples 6–9 were prepared as described above with the exception that closure member 22 of the sterilization indicator was constructed of TYVEK™ high-density polyethylene fiber material, commercially available from E.I. du Pont de Nemours and Co., Wilmington, Del.
(§2) Sterilization indicators were made as described above with spores that had been coated with each of the chemicals and concentrations listed in Table 6. The indicators were placed in instrument trays and exposed to a hydrogen peroxide plasma sterilization procedure at 45–55° C. in a STERRAD™ 100SI GMP Sterilizer, obtained from Advanced Sterilization Products Co., Irvine, Calif. During the sterilization procedure a vacuum was drawn in the sterilization chamber for 5–6 minutes until the pressure was reduced to 300 mTorr. A 1.8 ml aliquot of an aqueous solution of 58–60% hydrogen peroxide was then injected into the sterilization chamber over a period of about 6 minutes, yielding an empty chamber concentration of […] hydrogen peroxide, and hydrogen peroxide vapor was allowed to diffuse throughout the chamber for 1–22 minutes at 6–10 Torr. A vacuum was then drawn, reducing the pressure to 500 mTorr and removing all detectable hydrogen peroxide vapor from the chamber.
(§3) After exposure to the sterilization procedure, the indicators were removed from the sterilizer and the inner containers containing the enzyme substrate and nutrient medium were crushed. The indicators were then incubated at 60° C. and examined for fluorescence every hour for 5 hours using a 3M™ ATTEST™ Model 190 Rapid Autoreader, commercially available from 3M Company, St. Paul, Minn. Additionally, spore growth, as indicated by a color change from purple to yellow, was determined visually after 168 hours of incubation.
(§4) The number of growth positive indicators detected after 168 hours of incubation is recorded in Table 6.
as §2, with “7.” for “6.”
as §2, with “8.” for “6.”, “chamber. […]” for “chamber.”

Assay [4] deals with enzyme associated with Bacillus stearothermophilus spores. Put plainly: Rapid enzyme fluorescence readout of indicators after hydrogen peroxide plasma sterilization. It counts as biochemical. Particulars: for FLUORESCENCE - PERCENT POSITIVE 1 HR / FLUORESCENCE - PERCENT POSITIVE 2 HR / FLUORESCENCE - PERCENT POSITIVE 3 HR / FLUORESCENCE - PERCENT POSITIVE 4 HR / FLUORESCENCE - PERCENT POSITIVE 5 HR: 1–22 min diffusion. Here is the method: as §1, §2, §3, §4
as §2, with “7.” for “6.”
as §2, with “8.” for “6.”, “chamber. […]” for “chamber.”

As for Decaglyceryl Monoisostearate, the “NO. GROWTH POSITIVE 168 HR” value in assay [1] (Example 5, 50 mg/ml coating) is 9. In addition, the “NO. GROWTH POSITIVE 168 HR” value in assay [1] (Example 5, 100 mg/ml coating) was 8. Besides, the “accuracy of sterilization indicators compared to indicators made with untreated spores” value in assay [2] was “improved”. In assay [2] (Example 5, 50 mg/ml coating), the “FLUORESCENCE - PERCENT POSITIVE 1 HR” value is 33.3%, the “FLUORESCENCE - PERCENT POSITIVE 2 HR” value turned out to be 77.8%, the “FLUORESCENCE - PERCENT POSITIVE 3 HR” value stood at 88.9% and the “FLUORESCENCE - PERCENT POSITIVE 4 HR” value is 88.9%. Besides, in assay [2] (Example 5, 100 mg/ml coating), the “FLUORESCENCE - PERCENT POSITIVE 1 HR” value came out at 37.5%, the “FLUORESCENCE - PERCENT POSITIVE 2 HR” value amounted to 100%, the “FLUORESCENCE - PERCENT POSITIVE 3 HR” value is recorded as 100% and the “FLUORESCENCE - PERCENT POSITIVE 4 HR” value was found to be 100%.
For Hexaglyceryl Monostearate, the “NO. GROWTH POSITIVE 168 HR” value in assay [1] (Example 1, 5 mg/ml coating) was determined as 50. For the same substance, the “NO. GROWTH POSITIVE 168 HR” value in assay [1] (Example 1, 10 mg/ml coating) came out at 44. In addition, in assay [1] (Example 1, 20 mg/ml coating), the “NO. GROWTH POSITIVE 168 HR” value was determined as 44. Besides, in assay [2] (Example 1, 5 mg/ml coating), the “FLUORESCENCE - PERCENT POSITIVE 1 HR” value was found to be 0%, the “FLUORESCENCE - PERCENT POSITIVE 2 HR” value came out at 32.0%, the “FLUORESCENCE - PERCENT POSITIVE 3 HR” value came to 78.0% and the “FLUORESCENCE - PERCENT POSITIVE 4 HR” value is 84.0%. In assay [2] (Example 1, 5 mg/ml coating), the “FLUORESCENCE - PERCENT POSITIVE 5 HR” value was found to be 90.0% and the “FLUORESCENCE - PERCENT POSITIVE 6 HR” value turned out to be 94.0%. In assay [2] (Example 1, 10 mg/ml coating), the “FLUORESCENCE - PERCENT POSITIVE 1 HR” value came to 0%, the “FLUORESCENCE - PERCENT POSITIVE 2 HR” value turned out to be 31.8%, the “FLUORESCENCE - PERCENT POSITIVE 3 HR” value stood at 63.6% and the “FLUORESCENCE - PERCENT POSITIVE 4 HR” value is recorded as 79.5%. Further, in assay [2] (Example 1, 10 mg/ml coating), the “FLUORESCENCE - PERCENT POSITIVE 5 HR” value came out at 84.1% and the “FLUORESCENCE - PERCENT POSITIVE 6 HR” value turned out to be 86.4%. In assay [2] (Example 1, 20 mg/ml coating), the “FLUORESCENCE - PERCENT POSITIVE 1 HR” value came out at 0%, the “FLUORESCENCE - PERCENT POSITIVE 2 HR” value is given as 61.4%, the “FLUORESCENCE - PERCENT POSITIVE 3 HR” value is 86.4% and the “FLUORESCENCE - PERCENT POSITIVE 4 HR” value was 95.5%. Moreover, in assay [2] (Example 1, 20 mg/ml coating), the “FLUORESCENCE - PERCENT POSITIVE 5 HR” value worked out at 97.7% and the “FLUORESCENCE - PERCENT POSITIVE 6 HR” value was determined as 97.7%.
As for POE(15) Glyceryl Monostearate, the “NO. GROWTH POSITIVE 168 HR” value in assay [1] (Example 5, 50 mg/ml coating) came out at 7. For the same substance, the “NO. GROWTH POSITIVE 168 HR” value in assay [1] (Example 5, 100 mg/ml coating) was 4. For the same substance, in assay [2] (Example 5, 50 mg/ml coating), the “FLUORESCENCE - PERCENT POSITIVE 1 HR” value came to 0%, the “FLUORESCENCE - PERCENT POSITIVE 2 HR” value was 0%, the “FLUORESCENCE - PERCENT POSITIVE 3 HR” value turned out to be 42.9% and the “FLUORESCENCE - PERCENT POSITIVE 4 HR” value was 57.1%. In assay [2] (Example 5, 100 mg/ml coating), the “FLUORESCENCE - PERCENT POSITIVE 1 HR” value turned out to be 0%, the “FLUORESCENCE - PERCENT POSITIVE 2 HR” value is given as 0%, the “FLUORESCENCE - PERCENT POSITIVE 3 HR” value was 0% and the “FLUORESCENCE - PERCENT POSITIVE 4 HR” value is given as 0%.
Turning to “polyoxyethylene (60) glycerol monostearate [POE(60) Glycerol Monostearate]”, the “NO. GROWTH POSITIVE 168 HR” value in assay [3] (Example 7, 50 mg/ml coating) came out at 7. Moreover, the “NO. GROWTH POSITIVE 168 HR” value in assay [3] (Example 7, 100 mg/ml coating) came to 7. For the same substance, in assay [4] (2–3 hours after exposure), the “accuracy of sterilization indicators compared to indicators made with untreated spores” value is listed as “improved”. In addition, in assay [4] (Example 7, 50 mg/ml coating), the “FLUORESCENCE - PERCENT POSITIVE 1 HR” value is on record as 100%, the “FLUORESCENCE - PERCENT POSITIVE 2 HR” value was 100%, the “FLUORESCENCE - PERCENT POSITIVE 3 HR” value is 100% and the “FLUORESCENCE - PERCENT POSITIVE 4 HR” value came out at 100%. Moreover, in assay [4] (Example 7, 50 mg/ml coating), the “FLUORESCENCE - PERCENT POSITIVE 5 HR” value is 100%. Besides, in assay [4] (Example 7, 100 mg/ml coating), the “FLUORESCENCE - PERCENT POSITIVE 1 HR” value is recorded as 57.1%, the “FLUORESCENCE - PERCENT POSITIVE 2 HR” value amounted to 57.1%, the “FLUORESCENCE - PERCENT POSITIVE 3 HR” value is on record as 71.4% and the “FLUORESCENCE - PERCENT POSITIVE 4 HR” value is 71.4%. Further, the “FLUORESCENCE - PERCENT POSITIVE 5 HR” value in assay [4] (Example 7, 100 mg/ml coating) is 71.4%.
